The nature of the data set: Mean marker change from baseline after treatment (TU, TT 14-day, TD single dose, TU depot injection, topical T after 7 days). The settings on record: for Cmax to mean Cave ratio: range calculated from the average low and average high for the 5 arms tested. The class given is in vivo. An excerpt: The mean marker change from baseline in the foregoing tables can be measured at various times including: hours after treatment commences, 7 to 14 days after treatment commences, and during treatment.
A-E are all the 14-day timepoint
TU Depot Injection—after Single Dose

Marks after values point to notes of the source that are not given here.

Take `CCCCCCCCCCCCC(=O)O[C@H]1CC[C@H]2[C@@H]3CCC4=CC(=O)CC[C@]4(C)[C@H]3CC[C@]12C` [TT, testosterone tridecanoate]: the “Mean marker change from baseline in serum (e.g. IL-2, IL-6, TNF-Alpha, CRP, SHBG, MCP-1, AST, ALT, ALP)” value is on record as −5% to −35% (total daily TT dose 300 mg) and −5% to −35% (total daily TT dose 2700 mg). For the same compound, the “Cmax to mean Cave ratio” value reads like this: (total daily TT dose 300 mg) 1.72-3.08*; (total daily TT dose 2700 mg) 1.72-3.09*.

Source of the values: patent US20210361673A1, “COMPOSITIONS AND METHODS OF TREATING VIRAL INFECTIONS” (Lipocine Inc., priority 2020, published 2021).
